Reference: US7816407B2, “Agmatine and agmatine analogs in the treatment of epilepsy, seizure, and electroconvulsive disorders” (University of Kentucky Research Foundation, priority 2000, dated 2010)

Legend:
rats [1] = assay: Positional sense test; assay type: in vivo, rat; details: oral or intraperitoneal, 30 mg/kg
Protocol: (§1) Toxicity in mice and rats is assessed using three screens: the rotorod in mice, positional sense, and gait in rats. In mice, the test compound is administered at doses of 30, 100, and 300 mg/kg prior to evaluation in the toxicity screens. The mice are tested 0.5 hours and 4 hours after administration of the test compound. In rats, the test compound is administered at 30 mg/kg prior to the toxicity assessment. The rats are tested at 0.25, 0.5, 1, 2, and 4 hours after administration of the test compound.
Behavioral toxicity in rats weighing between 105 and 130 g is assessed by the positional sense test. […] If the rat experiences neurological toxicity, it will not be able to quickly lift its leg back to a normal position.

[2] = test system: MES-induced seizure spread (hindlimb tonic extension); assay: Maximal Electroshock Seizure (MES) test; assay type: in vivo, rat
Excerpt: The MES is an experimental model for generalized tonic-clonic seizures that identifies compounds which prevent seizure spread. The MES model is highly reproducible and has a consistent endpoint. An advantage of this model is that the behavioral and electrographic seizures are consistent with those observed in humans (Levy, R. H., Antiepileptic drugs. 3rd Ed. 1989, New York: Raven Press. xxvii, 1025. p. 85-102).
In the MES test, the animal receives an electrical stimulus, 0.2 seconds in duration, via corneal electrodes primed with an electrolyte solution containing an anesthetic agent. The 0.2 second stimulation is generated with 150 mA in rats at 60 Hz. Twenty rats, weighing between 105 g and 130 g receive an electrical stimulus 15 minutes, 30 minutes, 1 hour, 2 hours, 4 hours, 8 hours and 12 hours after oral administration of a dose of about 30 mg/kg of agmatine in phosphate buffered in saline per kg of the animal. The test endpoint, electrogenic seizure, is manifested as hindlimb tonic extension.

rats [3] = assay: Gait and stance test; assay type: in vivo, rat; details: oral or intraperitoneal, 30 mg/kg
Protocol: as §1
In the gait and stance test, neurotoxicity is indicated by a circular or zigzag gait after administration of the test compound. In addition, ataxia, abnormal spread of the legs, abnormal posture, tremor hyperactivity, lack of exploratory behavior, somnolence, stupor, or catalepsy can indicate neurotoxicity. This toxicity test was conducted on 20 rats, weighing between 105 and 130 g.

mice = assay: Rotorod neurotoxicity test; assay type: in vivo, mouse; details: doses as high as 300 mg/kg
Protocol: as §1
Toxicity in mice weighing between 20.5 and 25.5 g is assessed using the standardized rotorod test (Dunham, M. S. and T. A. Miya, A note on a simple apparatus for detecting neurological deficit in rats and mice, J. Am. Pharm. Assoc. Sci. Edit (1957) 46:208-209). Control mice can maintain their equilibrium for an extended period of time when they are placed on a 6 rpm rotation rod. Neurologically impaired animals cannot maintain equilibrium for one minute in each of three successive trials.

Q: `NCCCCN=C(N)N` [agmatine, 4-aminobutylguanidine] was tested. Which “neurotoxicity in positional sense test” value (rats [1]) did it give?
A: no neurotoxicity

Q: What about the “rats protected from MES-induced seizure spread” value (“rats protected” for short) ([2]; intraperitoneal, 4 hours before electrical shock) of the same compound?
A: 50%

Q: What about the “rats protected” value ([2]; oral 30 mg/kg, shock 0.25 hours after administration) of the same compound?
A: 37.5%

Q: What about the “rats protected” value ([2]; oral 30 mg/kg, shock 0.5 hours after administration) of the same compound?
A: 12.5%

Q: What about the “rats protected” value ([2]; oral 30 mg/kg, shock 2 hours after administration) of the same compound?
A: 12.5%

Q: And the “rats protected” value ([2]; oral 30 mg/kg, shock 4 hours after administration)?
A: 75%

Q: And the “rats protected” value ([2]; oral 30 mg/kg, shock 6 hours after administration)?
A: 25%

Q: And the “neurotoxicity in gait and stance test” value (rats [3])?
A: no neurotoxicity

Q: And the “behavioral or neurotoxicity in rotorod test” value (mice)?
A: none of these animals showed any evidence of behavioral or neurotoxicity
